How the values were obtained:
[1] = target: Transient receptor potential cation channel subfamily M member 6 (Homo sapiens) (UniProt Q9BX84); conditions: Compound concentration 100.0 nM
[2] = target: Calcium/calmodulin-dependent protein kinase type 1G (Homo sapiens) (UniProt Q96NX5); conditions: Compound concentration 100.0 nM
[3] = target: Membrane-associated tyrosine- and threonine-specific cdc2-inhibitory kinase (Homo sapiens) (UniProt Q99640); conditions: Compound concentration 100.0 nM
[4] = target: Phosphatidylinositol 3-kinase catalytic subunit type 3 (Homo sapiens) (UniProt Q8NEB9); conditions: Compound concentration 100.0 nM
[5] = target: Ribosomal protein S6 kinase alpha-6 (Homo sapiens) (UniProt Q9UK32); conditions: Compound concentration 100.0 nM
[6] = system: Tyrosine-protein kinase ABL1 (Homo sapiens), P00519 [Y253F]; conditions: Compound concentration 100.0 nM
[7] = target: Sigma non-opioid intracellular receptor 1 (Homo sapiens) (UniProt Q99720); conditions: Compound concentration 10.0 uM
Sigma non-opioid intracellular receptor 1 (Homo sapiens), sequence (Q99720 whole entry): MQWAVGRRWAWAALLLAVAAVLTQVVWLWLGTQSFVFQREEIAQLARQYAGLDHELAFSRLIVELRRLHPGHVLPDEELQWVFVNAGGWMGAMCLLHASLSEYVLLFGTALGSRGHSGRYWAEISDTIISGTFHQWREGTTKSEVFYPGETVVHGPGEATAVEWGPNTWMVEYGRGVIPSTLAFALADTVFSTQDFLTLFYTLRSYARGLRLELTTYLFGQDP

[8] = target: 5-hydroxytryptamine receptor 2A (Homo sapiens) (UniProt P28223); conditions: Compound concentration 10.0 uM
[9] = target: Serine/threonine-protein kinase 4 (Homo sapiens) (UniProt Q13043); conditions: Compound concentration 100.0 nM
[10] = target: Activin receptor type-1 (Homo sapiens) (UniProt Q04771); conditions: Compound concentration 100.0 nM
[11] = target: Mitogen-activated protein kinase kinase kinase 19 (Homo sapiens) (UniProt Q56UN5); conditions: Compound concentration 100.0 nM
[12] = target: Mitogen-activated protein kinase 3 (Homo sapiens) (UniProt P27361); conditions: Compound concentration 100.0 nM
[13] = target: Homeodomain-interacting protein kinase 4 (Homo sapiens) (UniProt Q8NE63); conditions: Compound concentration 100.0 nM
Homeodomain-interacting protein kinase 4 (Homo sapiens), sequence (Q8NE63 whole entry): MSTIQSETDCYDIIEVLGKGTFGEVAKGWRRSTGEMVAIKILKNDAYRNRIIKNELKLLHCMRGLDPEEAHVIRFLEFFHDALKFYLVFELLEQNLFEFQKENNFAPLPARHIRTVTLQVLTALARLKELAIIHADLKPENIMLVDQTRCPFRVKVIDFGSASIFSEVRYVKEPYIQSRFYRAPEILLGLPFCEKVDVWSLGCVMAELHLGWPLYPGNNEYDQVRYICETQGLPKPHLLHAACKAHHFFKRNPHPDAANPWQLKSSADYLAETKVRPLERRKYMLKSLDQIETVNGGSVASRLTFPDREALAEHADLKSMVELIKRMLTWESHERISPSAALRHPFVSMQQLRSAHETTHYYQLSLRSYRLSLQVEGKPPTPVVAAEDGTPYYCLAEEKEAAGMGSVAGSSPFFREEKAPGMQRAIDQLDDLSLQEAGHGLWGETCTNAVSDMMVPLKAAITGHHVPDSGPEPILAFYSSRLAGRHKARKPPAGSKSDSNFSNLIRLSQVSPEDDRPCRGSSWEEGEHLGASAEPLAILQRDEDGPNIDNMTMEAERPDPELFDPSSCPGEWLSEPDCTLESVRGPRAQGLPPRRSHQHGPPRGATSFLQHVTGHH

[14] = target: Tyrosine-protein kinase receptor TYRO3 (Homo sapiens) (UniProt Q06418); conditions: Compound concentration 100.0 nM
[15] = target: Serine/threonine-protein kinase Chk1 (Homo sapiens) (UniProt O14757); conditions: Compound concentration 100.0 nM
[16] = target: TGF-beta receptor type-1 (Homo sapiens) (UniProt P36897); conditions: Compound concentration 100.0 nM
[17] = target: Vascular endothelial growth factor receptor 3 (Homo sapiens) (UniProt P35916); conditions: Compound concentration 100.0 nM
[18] = target: Phosphatidylinositol 4,5-bisphosphate 3-kinase catalytic subunit delta isoform (Homo sapiens) (UniProt O00329); conditions: Compound concentration 100.0 nM
[19] = target: Serine/threonine-protein kinase Nek2 (Homo sapiens) (UniProt P51955); conditions: Compound concentration 100.0 nM
[20] = target: Alpha-2B adrenergic receptor (Homo sapiens) (UniProt P18089); conditions: Compound concentration 10.0 uM
Alpha-2B adrenergic receptor (Homo sapiens), sequence (P18089 whole entry): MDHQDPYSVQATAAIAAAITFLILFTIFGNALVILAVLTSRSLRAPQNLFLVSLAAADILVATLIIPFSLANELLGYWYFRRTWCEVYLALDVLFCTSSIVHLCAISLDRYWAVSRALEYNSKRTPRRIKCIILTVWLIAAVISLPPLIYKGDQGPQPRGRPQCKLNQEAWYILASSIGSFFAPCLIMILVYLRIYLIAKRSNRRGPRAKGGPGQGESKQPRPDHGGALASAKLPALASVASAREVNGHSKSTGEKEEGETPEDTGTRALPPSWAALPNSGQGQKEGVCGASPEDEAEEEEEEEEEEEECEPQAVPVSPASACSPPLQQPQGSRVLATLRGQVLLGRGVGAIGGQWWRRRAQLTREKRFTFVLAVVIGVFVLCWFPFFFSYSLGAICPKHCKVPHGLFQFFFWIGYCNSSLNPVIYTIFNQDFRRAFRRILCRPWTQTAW

[21] = target: Cyclin-dependent kinase-like 3 (Homo sapiens) (UniProt Q8IVW4); conditions: Compound concentration 100.0 nM
[22] = system: Mast/stem cell growth factor receptor Kit (Homo sapiens), P10721 [V559D,T670I]; conditions: Compound concentration 100.0 nM
[23] = target: Serine/threonine-protein kinase 32A (Homo sapiens) (UniProt Q8WU08); conditions: Compound concentration 100.0 nM
[24] = target: Tyrosine-protein kinase ABL1 (Homo sapiens) (UniProt P00519); conditions: Compound concentration 100.0 nM
[25] = system: Epidermal growth factor receptor (Homo sapiens), P00533 [L858R]; conditions: Compound concentration 100.0 nM
[26] = target: Insulin receptor (Homo sapiens) (UniProt P06213); conditions: Compound concentration 100.0 nM
[27] = system: Tyrosine-protein kinase ABL1 (Homo sapiens), P00519 [E255K]; conditions: Compound concentration 100.0 nM
[28] = target: Muscarinic acetylcholine receptor M1 (Homo sapiens) (UniProt P11229); conditions: Compound concentration 10.0 uM
[29] = target: Ephrin type-A receptor 3 (Homo sapiens) (UniProt P29320); conditions: Compound concentration 100.0 nM
[30] = system: Tyrosine-protein kinase ABL1 (Homo sapiens), P00519 [M351T]; conditions: Compound concentration 100.0 nM
[31] = target: Death-associated protein kinase 3 (Homo sapiens) (UniProt O43293); conditions: Compound concentration 100.0 nM
[32] = target: Atypical kinase COQ8B, mitochondrial (Homo sapiens) (UniProt Q96D53); conditions: Compound concentration 100.0 nM
[33] = target: Mitogen-activated protein kinase kinase kinase 9 (Homo sapiens) (UniProt P80192); conditions: Compound concentration 100.0 nM
Mitogen-activated protein kinase kinase kinase 9 (Homo sapiens), sequence (P80192 whole entry, looked up): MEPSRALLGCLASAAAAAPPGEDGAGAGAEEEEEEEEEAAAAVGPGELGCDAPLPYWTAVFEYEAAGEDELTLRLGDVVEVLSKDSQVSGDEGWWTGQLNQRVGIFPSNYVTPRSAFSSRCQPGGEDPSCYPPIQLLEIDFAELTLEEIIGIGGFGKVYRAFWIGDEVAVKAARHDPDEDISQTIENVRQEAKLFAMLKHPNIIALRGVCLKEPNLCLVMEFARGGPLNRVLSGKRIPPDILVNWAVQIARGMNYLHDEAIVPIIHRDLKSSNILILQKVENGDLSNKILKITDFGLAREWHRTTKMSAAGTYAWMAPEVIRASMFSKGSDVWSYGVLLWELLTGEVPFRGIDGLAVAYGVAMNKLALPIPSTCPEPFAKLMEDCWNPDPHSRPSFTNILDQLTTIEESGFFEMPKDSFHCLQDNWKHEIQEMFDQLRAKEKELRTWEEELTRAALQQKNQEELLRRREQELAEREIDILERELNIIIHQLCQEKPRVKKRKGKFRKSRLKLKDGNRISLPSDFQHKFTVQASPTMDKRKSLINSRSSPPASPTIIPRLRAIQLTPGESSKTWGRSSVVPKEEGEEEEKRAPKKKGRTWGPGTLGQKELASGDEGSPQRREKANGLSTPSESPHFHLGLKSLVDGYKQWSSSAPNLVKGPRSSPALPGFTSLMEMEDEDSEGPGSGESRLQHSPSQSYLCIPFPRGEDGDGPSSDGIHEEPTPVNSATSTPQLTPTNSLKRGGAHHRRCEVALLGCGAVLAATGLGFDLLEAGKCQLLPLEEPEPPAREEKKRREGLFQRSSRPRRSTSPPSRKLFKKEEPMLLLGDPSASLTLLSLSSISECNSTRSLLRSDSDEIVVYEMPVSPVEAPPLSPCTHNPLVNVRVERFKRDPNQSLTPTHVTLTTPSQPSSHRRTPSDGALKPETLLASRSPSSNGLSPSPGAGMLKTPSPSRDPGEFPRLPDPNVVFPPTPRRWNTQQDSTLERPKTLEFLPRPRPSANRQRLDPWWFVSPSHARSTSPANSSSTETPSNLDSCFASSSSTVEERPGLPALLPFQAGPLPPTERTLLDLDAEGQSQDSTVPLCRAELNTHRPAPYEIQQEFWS

[34] = target: Dual specificity protein kinase CLK3 (Homo sapiens) (UniProt P49761); conditions: Compound concentration 100.0 nM
[35] = target: Serine/threonine-protein kinase tousled-like 1 (Homo sapiens) (UniProt Q9UKI8); conditions: Compound concentration 100.0 nM
[36] = target: LIM domain kinase 2 (Homo sapiens) (UniProt P53671); conditions: Compound concentration 100.0 nM
[37] = target: 5-hydroxytryptamine receptor 3A (Homo sapiens) (UniProt P46098); conditions: Compound concentration 10.0 uM
[38] = target: Serine/threonine-protein kinase Nek9 (Homo sapiens) (UniProt Q8TD19); conditions: Compound concentration 100.0 nM
Serine/threonine-protein kinase Nek9 (Homo sapiens), sequence (Q8TD19 whole entry): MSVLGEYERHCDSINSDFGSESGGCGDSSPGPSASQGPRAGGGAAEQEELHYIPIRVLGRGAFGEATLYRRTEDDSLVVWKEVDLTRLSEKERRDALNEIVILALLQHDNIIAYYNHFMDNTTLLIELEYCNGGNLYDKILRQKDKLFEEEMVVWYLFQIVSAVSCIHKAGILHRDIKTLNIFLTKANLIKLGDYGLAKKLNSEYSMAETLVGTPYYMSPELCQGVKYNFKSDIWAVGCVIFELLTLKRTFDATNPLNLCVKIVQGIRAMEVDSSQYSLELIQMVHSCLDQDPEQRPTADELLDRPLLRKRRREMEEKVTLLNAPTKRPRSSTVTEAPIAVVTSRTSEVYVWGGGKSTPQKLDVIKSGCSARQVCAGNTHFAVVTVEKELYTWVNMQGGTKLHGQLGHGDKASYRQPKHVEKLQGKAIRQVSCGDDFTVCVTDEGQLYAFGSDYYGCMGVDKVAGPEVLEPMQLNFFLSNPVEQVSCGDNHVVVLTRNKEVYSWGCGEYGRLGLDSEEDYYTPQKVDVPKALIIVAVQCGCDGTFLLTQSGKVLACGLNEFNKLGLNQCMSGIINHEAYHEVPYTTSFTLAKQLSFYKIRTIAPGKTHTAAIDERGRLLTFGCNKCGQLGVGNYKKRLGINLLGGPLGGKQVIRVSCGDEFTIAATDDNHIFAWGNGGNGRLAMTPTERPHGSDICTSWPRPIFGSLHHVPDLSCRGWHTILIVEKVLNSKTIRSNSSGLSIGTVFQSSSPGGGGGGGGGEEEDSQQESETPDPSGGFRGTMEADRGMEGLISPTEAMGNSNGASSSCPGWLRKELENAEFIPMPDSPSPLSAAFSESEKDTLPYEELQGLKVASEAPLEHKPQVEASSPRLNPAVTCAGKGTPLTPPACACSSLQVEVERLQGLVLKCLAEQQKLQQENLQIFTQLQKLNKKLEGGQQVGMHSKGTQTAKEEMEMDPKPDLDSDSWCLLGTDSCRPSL

[39] = target: 1-phosphatidylinositol 3-phosphate 5-kinase (Homo sapiens) (UniProt Q9Y2I7); conditions: Compound concentration 100.0 nM
[40] = target: Tyrosine-protein kinase BTK (Homo sapiens) (UniProt Q06187); conditions: Compound concentration 100.0 nM
Tyrosine-protein kinase BTK (Homo sapiens), sequence (Q06187 whole entry): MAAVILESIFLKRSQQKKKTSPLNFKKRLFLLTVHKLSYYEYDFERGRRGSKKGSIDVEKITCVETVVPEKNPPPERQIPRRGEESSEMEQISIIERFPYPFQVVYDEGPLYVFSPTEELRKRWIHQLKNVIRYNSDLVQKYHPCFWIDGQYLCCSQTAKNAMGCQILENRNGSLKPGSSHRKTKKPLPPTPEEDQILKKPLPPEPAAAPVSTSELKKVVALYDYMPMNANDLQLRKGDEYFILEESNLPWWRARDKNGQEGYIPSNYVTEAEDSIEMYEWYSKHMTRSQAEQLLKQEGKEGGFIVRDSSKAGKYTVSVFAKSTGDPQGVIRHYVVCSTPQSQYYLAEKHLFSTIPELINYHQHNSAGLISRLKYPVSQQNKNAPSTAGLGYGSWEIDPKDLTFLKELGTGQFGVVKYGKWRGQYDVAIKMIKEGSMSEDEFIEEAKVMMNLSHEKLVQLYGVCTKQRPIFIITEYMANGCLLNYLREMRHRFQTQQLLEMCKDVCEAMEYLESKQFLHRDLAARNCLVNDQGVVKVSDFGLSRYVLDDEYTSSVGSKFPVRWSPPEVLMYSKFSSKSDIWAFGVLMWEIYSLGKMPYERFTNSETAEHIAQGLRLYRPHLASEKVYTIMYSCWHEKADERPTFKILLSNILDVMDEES

[41] = target: Serine/threonine-protein kinase Nek7 (Homo sapiens) (UniProt Q8TDX7); conditions: Compound concentration 100.0 nM
Serine/threonine-protein kinase Nek7 (Homo sapiens), sequence (Q8TDX7 whole entry, looked up): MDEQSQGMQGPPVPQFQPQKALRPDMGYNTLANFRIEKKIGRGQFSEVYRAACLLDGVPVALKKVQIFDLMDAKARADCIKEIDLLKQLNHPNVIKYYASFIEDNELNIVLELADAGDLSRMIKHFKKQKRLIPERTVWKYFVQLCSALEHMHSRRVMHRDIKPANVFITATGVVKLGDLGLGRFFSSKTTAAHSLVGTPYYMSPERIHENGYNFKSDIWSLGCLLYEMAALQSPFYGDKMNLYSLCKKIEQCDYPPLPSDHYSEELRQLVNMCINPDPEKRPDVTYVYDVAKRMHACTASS

[42] = target: Beta-adrenergic receptor kinase 1 (Homo sapiens) (UniProt P25098); conditions: Compound concentration 100.0 nM
[43] = target: Serine/threonine-protein kinase ULK1 (Homo sapiens) (UniProt O75385); conditions: Compound concentration 100.0 nM
[44] = target: Serine/threonine-protein kinase PAK 4 (Homo sapiens) (UniProt O96013); conditions: Compound concentration 100.0 nM
[45] = target: Phosphatidylinositol 4,5-bisphosphate 3-kinase catalytic subunit alpha isoform (Homo sapiens) (UniProt P42336); conditions: Compound concentration 100.0 nM

Membrane-associated tyrosine- and threonine-specific cdc2-inhibitory kinase (Homo sapiens), sequence (Q99640 whole entry): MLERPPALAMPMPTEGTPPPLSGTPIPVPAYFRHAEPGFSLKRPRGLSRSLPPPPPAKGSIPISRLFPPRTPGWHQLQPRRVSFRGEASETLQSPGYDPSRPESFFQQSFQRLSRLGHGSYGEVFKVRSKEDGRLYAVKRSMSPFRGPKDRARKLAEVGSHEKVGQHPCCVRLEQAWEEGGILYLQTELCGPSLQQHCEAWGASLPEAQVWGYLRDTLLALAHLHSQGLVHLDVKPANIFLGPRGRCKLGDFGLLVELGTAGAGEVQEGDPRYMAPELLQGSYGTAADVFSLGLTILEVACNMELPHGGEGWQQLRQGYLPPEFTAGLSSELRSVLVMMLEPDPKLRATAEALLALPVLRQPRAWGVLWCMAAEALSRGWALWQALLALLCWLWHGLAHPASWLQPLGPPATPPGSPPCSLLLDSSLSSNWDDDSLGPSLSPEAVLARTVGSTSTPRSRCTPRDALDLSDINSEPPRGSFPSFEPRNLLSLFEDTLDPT

Nc1c(C(=O)NCc2ccc(C(=O)NCCCC3CCCCC3)cc2)cnn1-c1ccccc1 [SR-318]
inactive: residual activity [1] 100% | residual activity [2] 100% | residual activity [3] 100% | residual activity [4] 99% | residual activity [5] 100% | residual activity [6] 100% | inhibition [7] 45.1% | inhibition [8] 23.7% | residual activity [9] 100% | residual activity [10] 100% | residual activity [11] 77% | residual activity [12] 94% | residual activity [13] 100% | residual activity [14] 100% | residual activity [15] 100% | residual activity [16] 100% | residual activity [17] 100% | residual activity [18] 94% | residual activity [19] 100% | inhibition [20] 17.7% | residual activity [21] 97% | residual activity [22] 98% | residual activity [23] 96% | residual activity [24] 97% | residual activity [25] 100% | residual activity [26] 100% | residual activity [27] 100% | inhibition [28] 31.1% | residual activity [29] 100% | residual activity [30] 86% | residual activity [31] 100% | residual activity [32] 100% | residual activity [33] 96% | residual activity [34] 95% | residual activity [35] 77% | residual activity [36] 100% | inhibition [37] -0.42% | residual activity [38] 100% | residual activity [39] 100% | residual activity [40] 100% | residual activity [41] 99% | residual activity [42] 100% | residual activity [43] 100% | residual activity [44] 99% | residual activity [45] 100%

O=C(NCCCC1CCCCC1)c1ccc(CNC(=O)c2cnn(-c3ccccc3)c2C(F)(F)F)cc1 [SR-321]
inactive: residual activity [1] 94% | residual activity [2] 100% | residual activity [3] 77% | residual activity [4] 100% | residual activity [5] 100% | residual activity [6] 98% | inhibition [7] 20.1% | inhibition [8] 8.57% | residual activity [9] 100% | residual activity [10] 100% | residual activity [11] 89% | residual activity [12] 93% | residual activity [13] 100% | residual activity [14] 100% | residual activity [15] 100% | residual activity [16] 89% | residual activity [17] 100% | residual activity [18] 100% | residual activity [19] 100% | inhibition [20] 1.13% | residual activity [21] 100% | residual activity [22] 100% | residual activity [23] 76% | residual activity [24] 88% | residual activity [25] 100% | residual activity [26] 100% | residual activity [27] 92% | inhibition [28] 11.8% | residual activity [29] 91% | residual activity [30] 100% | residual activity [31] 92% | residual activity [32] 100% | residual activity [33] 100% | residual activity [34] 100% | residual activity [35] 100% | residual activity [36] 100% | inhibition [37] 5.72% | residual activity [38] 100% | residual activity [39] 65% | residual activity [40] 100% | residual activity [41] 97% | residual activity [42] 100% | residual activity [43] 100% | residual activity [44] 100% | residual activity [45] 100%
